Several values for one entry are separate records, joined by “and”; a condition that tells them apart may be missing. Equal entries are not always repeated.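 The compound was tested at five concentrations on cells cultured in 96-well plates, with a 48-hour exposure period. GI50 is the concentration that inhibits growth by half. TGI: total growth inhibition.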 Where a SMILES comes first, the peptide text is derived from it. [ ]: non-standard residue; d: D form. Orn = NCCC[CH](N)C(=O)O
Legend:
Test in all cases: NCI-60 cell line screen, 48 h
NCI-H226 lung = tested on: NCI-H226 lung
M14 melanoma = tested on: M14 melanoma
MDA-MB-231 breast = tested on: MDA-MB-231 breast
RXF 393 renal = tested on: RXF 393 renal
NCI/ADR-RES ovarian = tested on: NCI/ADR-RES ovarian
UO-31 renal = tested on: UO-31 renal
HCC-2998 colon = tested on: HCC-2998 colon
OVCAR-3 ovarian = tested on: OVCAR-3 ovarian
SF-539 CNS = tested on: SF-539 CNS
SK-MEL-2 melanoma = tested on: SK-MEL-2 melanoma

O=CNc1ccc2c(c1)Cc1cc([N+](=O)[O-])ccc1-2
GI50 (NCI-H226 lung): 27.7 µM
TGI (NCI-H226 lung): > 100 µM
GI50 (M14 melanoma): 291 nM
TGI (M14 melanoma): > 100 µM
GI50 (MDA-MB-231 breast): 4110 nM
TGI (MDA-MB-231 breast): > 100 µM
GI50 (RXF 393 renal): 2330 nM
TGI (RXF 393 renal): > 100 µM
GI50 (NCI/ADR-RES ovarian): 2770 nM
TGI (NCI/ADR-RES ovarian): > 100 µM
GI50 (UO-31 renal): 3380 nM
TGI (UO-31 renal): > 100 µM
GI50 (HCC-2998 colon): 1.3 µM
TGI (HCC-2998 colon): > 100 µM
GI50 (OVCAR-3 ovarian): 1560 nM
TGI (OVCAR-3 ovarian): > 100 µM
GI50 (SF-539 CNS): 4140 nM
TGI (SF-539 CNS): > 100 µM
GI50 (SK-MEL-2 melanoma): 3580 nM
TGI (SK-MEL-2 melanoma): > 100 µM

CCCNNC(=O)c1ccc(CNC(=O)/C=C/c2ccccc2)cc1
GI50 (NCI-H226 lung): 0.314 µM
TGI (NCI-H226 lung): 2.58 µM
GI50 (M14 melanoma): 79 nM
TGI (M14 melanoma): > 100 µM
GI50 (MDA-MB-231 breast): 348 nM
TGI (MDA-MB-231 breast): > 100 µM
GI50 (RXF 393 renal): 180 nM
TGI (RXF 393 renal): 0.501 µM
GI50 (NCI/ADR-RES ovarian): 111 nM
GI50 (UO-31 renal): 51.5 nM
TGI (UO-31 renal): 0.771 µM
GI50 (HCC-2998 colon): 0.186 µM
TGI (HCC-2998 colon): 0.653 µM
GI50 (OVCAR-3 ovarian): 246 nM
TGI (OVCAR-3 ovarian): 1.8 µM
GI50 (SF-539 CNS): 191 nM
TGI (SF-539 CNS): > 100 µM
GI50 (SK-MEL-2 melanoma): 199 nM

Cn1cc(C2=C(c3cccc(NCC(O)CO)c3)C(=O)NC2=O)c2cc(Cl)ccc21 (stereo not drawn)
GI50 (NCI-H226 lung): 3.34 µM
TGI (NCI-H226 lung): 11.9 µM
GI50 (M14 melanoma): 6590 nM
TGI (M14 melanoma): 18.4 µM
GI50 (MDA-MB-231 breast): 5940 nM
TGI (MDA-MB-231 breast): 15.5 µM
GI50 (RXF 393 renal): 2820 nM
TGI (RXF 393 renal): 7.18 µM
GI50 (NCI/ADR-RES ovarian): 12500 nM
TGI (NCI/ADR-RES ovarian): > 25 µM
GI50 (UO-31 renal): 5990 nM
TGI (UO-31 renal): 17.6 µM
GI50 (HCC-2998 colon): 6.56 µM
TGI (HCC-2998 colon): 17.9 µM
GI50 (OVCAR-3 ovarian): 1060 nM
TGI (OVCAR-3 ovarian): 7.78 µM
GI50 (SF-539 CNS): 1780 nM
TGI (SF-539 CNS): 6.9 µM
GI50 (SK-MEL-2 melanoma): 3580 nM
TGI (SK-MEL-2 melanoma): 10 µM

O=C(O)C#Cc1ccc([N+](=O)[O-])cc1
TGI (NCI-H226 lung): > 100 µM
TGI (M14 melanoma): > 100 µM
TGI (MDA-MB-231 breast): > 100 µM
TGI (RXF 393 renal): > 100 µM
TGI (NCI/ADR-RES ovarian): > 100 µM
TGI (UO-31 renal): > 100 µM
TGI (HCC-2998 colon): > 100 µM
TGI (OVCAR-3 ovarian): > 100 µM
TGI (SF-539 CNS): > 100 µM
TGI (SK-MEL-2 melanoma): > 100 µM

N=C(N)c1ccc(-c2ccc(-c3ccco3)o2)cc1F
GI50 (NCI-H226 lung): 2.61 µM
TGI (NCI-H226 lung): 13.6 µM
GI50 (M14 melanoma): 1880 nM
TGI (M14 melanoma): 3.76 µM
GI50 (MDA-MB-231 breast): 1600 nM
TGI (MDA-MB-231 breast): 4.01 µM
GI50 (RXF 393 renal): 1620 nM
TGI (RXF 393 renal): 3.69 µM
GI50 (NCI/ADR-RES ovarian): 2660 nM
TGI (NCI/ADR-RES ovarian): 10.9 µM
GI50 (UO-31 renal): 1430 nM
TGI (UO-31 renal): 3.14 µM
GI50 (HCC-2998 colon): 1.94 µM
TGI (HCC-2998 colon): 3.8 µM
GI50 (OVCAR-3 ovarian): 3060 nM
TGI (OVCAR-3 ovarian): 9.77 µM
GI50 (SF-539 CNS): 1600 nM
TGI (SF-539 CNS): 3.25 µM
GI50 (SK-MEL-2 melanoma): 2090 nM
TGI (SK-MEL-2 melanoma): 3.72 µM

O=C(O)c1cn(C2CC2)c2cc(N3CCN(C(=O)Nc4nc(-c5ccc(Cl)cc5)cs4)CC3)c(F)cc2c1=O
GI50 (NCI-H226 lung): 3.23 µM
TGI (NCI-H226 lung): 87.7 µM
GI50 (M14 melanoma): 2860 nM
TGI (M14 melanoma): > 100 µM
GI50 (MDA-MB-231 breast): 3630 nM
TGI (MDA-MB-231 breast): > 100 µM
GI50 (RXF 393 renal): 3370 nM
TGI (RXF 393 renal): 54.6 µM
GI50 (NCI/ADR-RES ovarian): 4210 nM
TGI (NCI/ADR-RES ovarian): > 100 µM
GI50 (UO-31 renal): 596 nM
TGI (UO-31 renal): 33.7 µM
GI50 (HCC-2998 colon): 4.09 µM
TGI (HCC-2998 colon): > 100 µM
GI50 (OVCAR-3 ovarian): 2380 nM
TGI (OVCAR-3 ovarian): 34.6 µM
GI50 (SF-539 CNS): 775 nM
TGI (SF-539 CNS): > 100 µM
GI50 (SK-MEL-2 melanoma): 2400 nM
TGI (SK-MEL-2 melanoma): 6.85 µM

CC(C)CC1NC(=O)C(CCCN)NC(=O)C(C(C)C)NC(=O)C2CCCN2C(=O)C(Cc2ccccc2)NC(=O)C(CC(C)C)NC(=O)C(CCCN)NC(=O)C(C(C)C)NC(=O)C2CCCN2C(=O)C(Cc2ccccc2)NC1=O (stereo not drawn) (cyclo(FPV[Orn]LFPV[Orn]L); configuration not given here)
GI50 (NCI-H226 lung): 0.0203 µM and 0.0564 µM
TGI (NCI-H226 lung): 1.03 µM and 1.92 µM
GI50 (M14 melanoma): 10.1 nM
TGI (M14 melanoma): 0.609 µM and 1.52 µM
GI50 (MDA-MB-231 breast): 20.9 nM and 24.2 nM
TGI (MDA-MB-231 breast): 0.146 µM and 0.0877 µM
GI50 (RXF 393 renal): 35.2 nM and 51.5 nM
TGI (RXF 393 renal): 0.72 µM and 1.44 µM
GI50 (NCI/ADR-RES ovarian): 614 nM and 2140 nM
TGI (NCI/ADR-RES ovarian): 5.05 µM and 13.3 µM
GI50 (UO-31 renal): 599 nM and 1640 nM
TGI (UO-31 renal): 3.61 µM and 6.37 µM
GI50 (HCC-2998 colon): < 0.00325 µM
TGI (HCC-2998 colon): 1.29 µM and 1.74 µM
GI50 (OVCAR-3 ovarian): 10.3 nM and 32.2 nM
TGI (OVCAR-3 ovarian): 0.211 µM and 1.43 µM
GI50 (SF-539 CNS): 14.6 nM and 47.7 nM
TGI (SF-539 CNS): 0.421 µM and 1.05 µM
GI50 (SK-MEL-2 melanoma): 9.39 nM and 24.3 nM
TGI (SK-MEL-2 melanoma): 0.0404 µM and 0.0891 µM

COc1ccc(-c2oncc2-c2cc(OC)c3c(c2)OCO3)cc1
GI50 (NCI-H226 lung): 9.53 µM
TGI (NCI-H226 lung): > 93.8 µM
GI50 (M14 melanoma): 2330 nM
TGI (M14 melanoma): > 69.6 µM
GI50 (MDA-MB-231 breast): 2800 nM
TGI (MDA-MB-231 breast): 54 µM
GI50 (RXF 393 renal): 2900 nM
TGI (RXF 393 renal): 20.3 µM
GI50 (NCI/ADR-RES ovarian): 1630 nM
TGI (NCI/ADR-RES ovarian): 24.4 µM
GI50 (UO-31 renal): 4460 nM
TGI (UO-31 renal): 55.9 µM
GI50 (HCC-2998 colon): 6.36 µM
TGI (HCC-2998 colon): > 100 µM
GI50 (OVCAR-3 ovarian): 3150 nM
TGI (OVCAR-3 ovarian): 39 µM
GI50 (SF-539 CNS): 2000 nM
TGI (SF-539 CNS): 5.92 µM
GI50 (SK-MEL-2 melanoma): 2880 nM
TGI (SK-MEL-2 melanoma): > 29.5 µM

COc1ccc(C2SC(C)C(=O)N2NC(=O)C(O)c2ccccc2)cc1 (stereo not drawn)
GI50 (NCI-H226 lung): > 100 µM
TGI (NCI-H226 lung): > 100 µM
GI50 (M14 melanoma): > 100000 nM
TGI (M14 melanoma): > 100 µM
GI50 (MDA-MB-231 breast): > 100000 nM
TGI (MDA-MB-231 breast): > 100 µM
GI50 (RXF 393 renal): > 100000 nM
TGI (RXF 393 renal): > 100 µM
GI50 (NCI/ADR-RES ovarian): > 100000 nM
TGI (NCI/ADR-RES ovarian): > 100 µM
GI50 (UO-31 renal): > 100000 nM
TGI (UO-31 renal): > 100 µM
GI50 (HCC-2998 colon): > 100 µM
TGI (HCC-2998 colon): > 100 µM
GI50 (OVCAR-3 ovarian): > 100000 nM
TGI (OVCAR-3 ovarian): > 100 µM
GI50 (SF-539 CNS): > 100000 nM
TGI (SF-539 CNS): > 100 µM
GI50 (SK-MEL-2 melanoma): > 100000 nM
TGI (SK-MEL-2 melanoma): > 100 µM
